Where a name gives a salt, the structure may show the parent alone. Read-outs that look alike come from different tables or passages of the source.
Assay: Pharmacokinetics test in beagle dogs (capsule by gavage, plasma LC/MS/MS)
Format: in vivo
Method: The LC/MS/MS system used in the analysis consists of an Agilent 1200 Series vacuum degasser, binary pump, well-plate autosampler, thermostated column compartment, the Agilent G6430 Triple Quadrupole Mass Spectrometer with an electrosprayionization (ESI) source. Quantitative analysis was carried out using MRM mode. The parameters for MRM transitions are in the Table A.
An Agilent XDB-C18, 2.1×30 mm, 3.5 μM column was used for the analysis. 5 μL of the samples were injected. Analysis condition: The mobile phase was 0.1% formic acid in water (A) and 0.1% formic acid in methanol (B). The flow rate was 0.4 mL/min. And the gradient of Mobile phase was in the Table B.
An ESI source was used on the LC/MS/MS spectrometer. The analysis was done in positive ion mode as appropriate and the MRM transition for each analyte was optimized using standard solution. A Capcell MP-C18 100×4.6 mm I.D., […] column (Phenomenex, Torrance, Calif., USA) was used during the analysis. The mobile phase was 5 mM ammonia acetate, 0.1% MeOH in water (A): 5 mM ammonia acetate, 0.1% MeOH in acetonitrile (B) (70/30, v/v). The flow rate was 0.6 mL/min. Column was maintained at ambient temperature. 20 μL of the samples were injected.
The blood samples (0.3 mL) were drawn at 0.25, 0.5, 1.0, 2.0, 3.0, 4.0, 6.0, 8.0, 12 and 24 hour time points or 0.083, 0.25, 0.5, 1.0, 2.0, 4.0, 6.0, 8.0 and 24 hour time points and centrifuged at 3,000 or 4000 rpm for 2 to 10 min. The plasma solutions were collected, and analyzed by LC/MS/MS as described above. The pharmacokinetic parameters were calculated according to non-compartment model using WinNonlin procedure.

[1] = capsule by gavage, dose 2.5 mg/kg, plasma

SMILES	AUC(0-t) (dog, po, capsule by gavage, dose 2.5 mg/kg, plasma) [ng·h/mL]	Cmax (dog, po, capsule by gavage, dose 2.5 mg/kg, plasma, read-out: Cmax) [ng/mL]	Tmax (dog, po, capsule by gavage, dose 2.5 mg/kg, plasma, read-out: Tmax) [h]	exposure and bioavailability in vivo (Cmax and AUClast much larger than those of compound of formula (I))	AUClast [1] [ng·h/mL]	Cmax [1] [ng/mL]	Tmax [1] [h]
COc1ncc(-c2ccn3ncc(C#N)c3c2)cc1NS(=O)(=O)c1ccc(F)cc1F [Compound of formula (I), N-(5-(3-cyanopyrazolo[1,5-α]pyridin-5-yl)-2-methoxypyridin-3-yl)-2,4-difluorobenzenesulfonamide]	1550	482	1.67	–	–	–	–
COc1ncc(-c2ccn3ncc(C#N)c3c2)cc1NS(=O)(=O)c1ccc(F)cc1F [N-(5-(3-cyanopyrazolo[1,5-α]pyridin-5-yl)-2-methoxypyridin-3-yl)-2,4-difluorobenzenesulfonamide]	–	–	–	good exposure and bioavailability	8420	3050	0.667
COc1ncc(-c2ccn3ncc(C#N)c3c2)cc1NS(=O)(=O)c1ccc(F)cc1F [amorphous form of mono-sodium salt, N-(5-(3-cyanopyrazolo[1,5-α]pyridin-5-yl)-2-methoxypyridin-3-yl)-2,4-difluorobenzenesulfonamide]	–	–	–	–	7290	2180	1.33
COc1ncc(-c2ccn3ncc(C#N)c3c2)cc1NS(=O)(=O)c1ccc(F)cc1F [crystalline form A of mono-choline salt, N-(5-(3-cyanopyrazolo[1,5-α]pyridin-5-yl)-2-methoxypyridin-3-yl)-2,4-difluorobenzenesulfonamide]	–	–	–	–	9130	3220	1.08
COc1ncc(-c2ccn3ncc(C#N)c3c2)cc1NS(=O)(=O)c1ccc(F)cc1F [crystalline form A of mono-lithium salt, N-(5-(3-cyanopyrazolo[1,5-α]pyridin-5-yl)-2-methoxypyridin-3-yl)-2,4-difluorobenzenesulfonamide]	–	–	–	–	4290	1640	1.5
COc1ncc(-c2ccn3ncc(C#N)c3c2)cc1NS(=O)(=O)c1ccc(F)cc1F [crystalline form A of mono-sodium salt, N-(5-(3-cyanopyrazolo[1,5-α]pyridin-5-yl)-2-methoxypyridin-3-yl)-2,4-difluorobenzenesulfonamide]	–	–	–	–	8730	2820	2.5
COc1ncc(-c2ccn3ncc(C#N)c3c2)cc1NS(=O)(=O)c1ccc(F)cc1F [crystalline form B of mono-sodium salt, N-(5-(3-cyanopyrazolo[1,5-α]pyridin-5-yl)-2-methoxypyridin-3-yl)-2,4-difluorobenzenesulfonamide]	–	–	–	–	9370	4530	0.583
COc1ncc(-c2ccn3ncc(C#N)c3c2)cc1NS(=O)(=O)c1ccc(F)cc1F [crystalline form C of mono-sodium salt, N-(5-(3-cyanopyrazolo[1,5-α]pyridin-5-yl)-2-methoxypyridin-3-yl)-2,4-difluorobenzenesulfonamide]	–	–	–	–	5700	1410	2.33

— US11179376B2, “Salts of pyrazolo[1,5-a]pyridine derivative and use thereof” (SUNSHINE LAKE PHARMA CO., LTD., priority 2017, dated 2021)
